Assay results taken from the supplement of paper PMC10307832.

Legend:
Assay in all cases: relative viability (nuclei count vs DMSO), 5 days (fraction); higher = more cells survive
[1] = compound: OCc1c[nH]c2ccccc12 [Indole-3-carbinol] + Nc1nc2[nH]cc(CCc3ccc(C(=O)N[C@@H](CCC(=O)O)C(=O)O)cc3)c2c(=O)[nH]1 [Pemetrexed] (partner 0.2 µM)
In short: (§1)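 Nuclei were stained with Hoechst during a one-step fixation (final 0.05% Triton X-100, 1% formaldehyde, 1 ug/ml Hoechst) carried out 5 days after dosing, then counted on 4× images. The cells, lung cancer lines in 1536-well plates, had been dosed by pin tool the day after seeding with one drug alone or a fixed anchor-drug dose plus five library-drug doses (not always all listed) in √10 steps. Relative viability is the nuclei count in treated wells divided by that in vehicle wells, and each value is the median of duplicate plates.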

[2] = compound: OCc1c[nH]c2ccccc12 [Indole-3-carbinol] + CS(=O)(=O)CCNCc1ccc(-c2ccc3ncnc(Nc4ccc(OCc5cccc(F)c5)c(Cl)c4)c3c2)o1 [Lapatinib] (partner 2 µM)
In short: as §1

[3] = compound: OCc1c[nH]c2ccccc12 [Indole-3-carbinol] + O=C(c1cc(Cc2n[nH]c(=O)c3ccccc23)ccc1F)N1CCN(C(=O)C2CC2)CC1 [Olaparib] (partner 8 µM)
In short: as §1

[4] = compound: OCc1c[nH]c2ccccc12 [Indole-3-carbinol] + N=C(N)NC(=N)NCCc1ccccc1 [Phenformin] (partner 250 µM)
In short: as §1

[5] = compound: OCc1c[nH]c2ccccc12 [Indole-3-carbinol] + CC(=O)c1c(C)c2cnc(Nc3ccc(N4CCNCC4)cn3)nc2n(C2CCCC2)c1=O [Palbociclib] (partner 0.5 µM)
In short: as §1

Cell Line | relative viability ([1]; first compound 0.253 µM) | relative viability ([1]; first compound 0.8 µM) | relative viability ([1]; first compound 2.53 µM) | relative viability ([1]; first compound 8 µM) | relative viability ([2]; first compound 0.253 µM) | relative viability ([2]; first compound 0.8 µM) | relative viability ([2]; first compound 2.53 µM) | relative viability ([2]; first compound 8 µM) | relative viability ([3]; first compound 0.253 µM) | relative viability ([3]; first compound 0.8 µM) | relative viability ([3]; first compound 2.53 µM) | relative viability ([3]; first compound 8 µM) | relative viability ([4]; first compound 0.253 µM) | relative viability ([4]; first compound 0.8 µM) | relative viability ([4]; first compound 2.53 µM) | relative viability ([4]; first compound 8 µM) | relative viability ([5]; first compound 0.253 µM) | relative viability ([5]; first compound 0.8 µM) | relative viability ([5]; first compound 2.53 µM) | relative viability ([5]; first compound 8 µM)
NCI-H23 | 0.738 | 0.773 | 0.844 | 0.788 | 1.09 | 1.1 | 1.06 | 0.9 | 0.316 | 0.353 | 0.3 | 0.276 | 0.773 | 0.815 | 0.831 | 0.77 | 0.435 | 0.463 | 0.546 | 0.419
NCI-H322M | 0.562 | 0.685 | 0.546 | 0.636 | 0.601 | 0.537 | 0.575 | 0.549 | 0.779 | 0.692 | 0.773 | 0.725 | 0.685 | 0.764 | 0.746 | 0.761 | 0.456 | 0.481 | 0.506 | 0.476
NCI-H358 | 0.17 | 0.161 | 0.182 | 0.185 | 0.519 | 0.422 | 0.42 | 0.423 | 0.619 | 0.659 | 0.717 | 0.569 | 0.383 | 0.33 | 0.345 | 0.325 | 0.145 | 0.125 | 0.136 | 0.12
NCI-H460 | 0.0608 | 0.0603 | 0.063 | 0.0679 | 1.09 | 0.993 | 0.983 | 0.9 | 0.38 | 0.377 | 0.455 | 0.375 | 0.535 | 0.482 | 0.53 | 0.498 | 0.149 | 0.17 | 0.229 | 0.19
NCI-H520 | 0.671 | 0.687 | 0.69 | 0.757 | 0.899 | 0.838 | 0.868 | 0.742 | 0.336 | 0.341 | 0.383 | 0.265 | 0.58 | 0.549 | 0.622 | 0.585 | 0.225 | 0.183 | 0.21 | 0.217
NCI-H647 | 0.18 | 0.202 | 0.159 | 0.181 | 1.24 | 0.904 | 0.87 | 0.969 | 0.578 | 0.735 | 0.693 | 0.409 | 0.637 | – | 0.569 | 0.446 | 0.392 | 0.318 | 0.292 | 0.433
NCI-H650 | 0.959 | 0.851 | 0.937 | 1.04 | 0.333 | 0.817 | 0.98 | 0.842 | 0.395 | 0.403 | 0.418 | 0.359 | 0.47 | 0.491 | 0.484 | 0.416 | 0.311 | 0.338 | 0.352 | 0.307
NCI-H661 | 0.898 | 0.891 | 0.945 | 0.891 | 0.541 | 0.44 | 0.533 | 0.478 | 0.775 | 0.771 | 0.866 | 0.742 | 0.281 | 0.253 | 0.272 | 0.266 | 0.426 | 0.412 | 0.447 | 0.444
NCI-H838 | 0.236 | 0.256 | 0.265 | 0.254 | 1.09 | 0.805 | 0.959 | 0.949 | 0.856 | 0.85 | 0.75 | 0.704 | 0.607 | 0.526 | 0.735 | 0.553 | 0.191 | 0.203 | 0.231 | 0.223
NCI-H1355 | 1.08 | 1.08 | 0.983 | 1.06 | 1.08 | 0.981 | 0.975 | 0.887 | 0.782 | 0.77 | 0.772 | 0.699 | 0.48 | 0.455 | 0.435 | 0.462 | 0.401 | 0.379 | 0.43 | 0.392
NCI-H1395 | 0.848 | 0.868 | 0.78 | 0.845 | 1.04 | 0.873 | 0.931 | 0.829 | 0.42 | 0.478 | 0.48 | 0.413 | 0.434 | 0.405 | 0.432 | 0.457 | 0.625 | 0.589 | 0.734 | 0.531
NCI-H1437 | 0.311 | 0.337 | 0.312 | 0.318 | 0.818 | 0.868 | 0.781 | 0.761 | 0.65 | 0.675 | 0.639 | 0.619 | 0.308 | 0.323 | 0.29 | 0.448 | 0.296 | 0.346 | 0.296 | 0.305
NCI-H1650 | 0.377 | 0.328 | 0.47 | 0.449 | 0.892 | 0.561 | 0.875 | 0.716 | 0.736 | 0.889 | 0.92 | 0.768 | 0.42 | – | 0.462 | 0.356 | 0.376 | 0.341 | 0.338 | 0.351
NCI-H1651 | 0.576 | 0.539 | 0.686 | 0.605 | 0.619 | 0.69 | 0.921 | 0.704 | 0.195 | 0.203 | 0.161 | 0.175 | 0.287 | 0.349 | 0.315 | 0.424 | 0.53 | 0.521 | 0.524 | 0.495
NCI-H1666 | 0.882 | 0.852 | 0.878 | 0.826 | 0.76 | 0.584 | 0.581 | 0.7 | 0.803 | 0.731 | 0.766 | 0.728 | 0.592 | 0.515 | 0.582 | 0.558 | 0.667 | 0.694 | 0.667 | 0.626
NCI-H1734 | 0.413 | 0.417 | 0.454 | 0.418 | 0.979 | 1.02 | 1.04 | 0.955 | 0.61 | 0.619 | 0.613 | 0.58 | 0.406 | 0.394 | 0.34 | 0.333 | 0.352 | 0.376 | 0.331 | 0.31
